Experimental findings from PMC7998669, “7-(2-Anilinopyrimidin-4-yl)-1-benzazepin-2-ones Designed by a “Cut and Glue” Strategy Are Dual Aurora A/VEGF-R Kinase Inhibitors” (Molecules, 2021) are described below.

Common to all, as to assay: NCI cancer cell line screen (sulforhodamin B)
Assay type in all cases: cell-based

For one assay, the system named is A498. The following applies: Homo sapiens; A498, Renal; 48 h; read-out: log10 GI50 (converted). As to the method: (§1) The new dual Aurora A/VEGF-R inhibitors 2e and 2n were selected by the National Cancer Institute for screening in its broad cancer cell line panel. The NCI in vitro assay is performed by incubation of cells with test compounds for 48 h and subsequent cell fixation with trichloroacetic acid. The pink dye sulforhodamin B is added, which binds to the proteins of the fixed cells. After washing and solubilizing the bound stain, the optical density is measured spectrophotometrically to determine the relative proliferation of treated and untreated cells.
(§2) Simultaneous inhibition of the Aurora A kinase and the VEGF-R2/3 receptor kinases may represent an interesting dual activity for the treatment of cancer. The National Cancer Institute selected the compounds 2e and 2n as representatives with particularly high inhibitory activity on the above kinases for testing in the IVCLS (in vitro cell line screening). In this screening, compounds are tested for antiproliferative activity on about 60 in vitro cultivated tumor cell lines. Based on this very broad screening on cell lines from nine tumor entities the general antiproliferative potency of compounds is determined. In addition, the bioinformatic tool COMPARE allowed one to draw conclusions on the molecular target of the compounds from the activity patterns on the different cell lines. Similar molecular mechanisms of action of two compounds are assumed if a Pearson correlation coefficient (PCC) of > 0.6 is calculated by COMPARE [52, 53]. […] The selectivity profile of the two compounds is not very pronounced given the overall very similar proliferation inhibition values across all cell lines. A COMPARE analysis determined a PCC = 0.61 for the patterns of test compounds 2e and 2n, which is consistent with an analogous mechanism of action. However, whether this mechanism is actually based on the inhibition of the inhibited Aurora kinases and VEGF receptor kinases cannot be deduced from these profiles.

The test system of a further assay is SF-539. To be noted: Homo sapiens; SF-539, CNS; 48 h; read-out: log10 GI50 (converted). As to the method:
as §1, §2

The subject of the next assay is OVCAR-8. The following applies: Homo sapiens; OVCAR-8, Ovarian; 48 h; read-out: log10 GI50 (converted). The procedure: as §1, §2
A further assay concerns U0-31. The following applies: Homo sapiens; U0-31, Renal; 48 h; read-out: log10 GI50 (converted). The procedure: as §1, §2
A further assay deals with NCI/ADR-RES. To be noted: Homo sapiens, Ovarian, 48 h, read-out: log10 GI50 (converted). As to the method: as §1, §2
Another assay relates to CCRF-CEM. To be noted: Homo sapiens, Leukemia, 48 h, read-out: log10 GI50 (converted). The procedure: as §1, §2
In another assay the test system is SN12C. The following applies: Homo sapiens, Renal, 48 h, read-out: log10 GI50 (converted). The procedure: as §1, §2
In a further assay the test system is TK-10. The following applies: Homo sapiens; TK-10, Renal; 48 h; read-out: log10 GI50 (converted). As to the method: as §1, §2

In the case of `O=C1CCCc2cc(-c3ccnc(Nc4ccc(O)cc4)n3)ccc2N1` [Compound 2e, 7-[2-(4-Hydroxyanilino)pyrimidin-4-yl]-1,3,4,5-tetrahydro-2H-1-benzazepin-2-one], the concentration for 50% growth inhibition (GI50) is 4.79 µM in the assay on A498; 4.17 µM with SF-539; 4.07 µM with OVCAR-8; 1.74 µM in the assay with U0-31; more than 100 µM in the assay with NCI/ADR-RES; 2.51 µM with CCRF-CEM. The GI50 with SN12C is 6.17 µM; in the assay with TK-10, 3.8 µM.

As to `COc1ccc(Nc2nccc(-c3ccc4c(c3)CCCC(=O)N4)n2)cc1O` [Compound 2n, 7-[2-(3-Hydroxy-4-methoxyanilino)pyrimidin-4-yl]-1,3,4,5-tetrahydro-2H-1-benzazepin-2-one], the GI50 is 37.2 µM with A498; 4.47 µM in the assay with SF-539; 9.77 µM in the assay on OVCAR-8; 3.02 µM in the assay with U0-31; 14.1 µM in the assay with NCI/ADR-RES; 3.89 µM in the assay with CCRF-CEM. Besides, the GI50 was 5.75 µM in the assay on SN12C and 23.4 µM in the assay with TK-10.
